# The supplement of paper PMC10307832
# Tests used:
# Assay in all cases: relative viability (nuclei count vs DMSO), 5 days (fraction); higher = more cells survive
# PAC-1 + Dasatinib = compound: C=CCc1cccc(/C=N/NC(=O)CN2CCN(Cc3ccccc3)CC2)c1O [PAC-1] + Cc1nc(Nc2ncc(C(=O)Nc3c(C)cccc3Cl)s2)cc(N2CCN(CCO)CC2)n1 [Dasatinib] (partner 0.075 µM)
# Outline: (§1)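 Relative viability is defined as nuclei in treated wells over nuclei in vehicle wells. Duplicate plates were run and medians reported. Lung cancer cell lines in 1536-well plates were dosed by pin tool one day after seeding, with one drug or with a fixed anchor-drug dose plus five library-drug doses (not always all listed) in √10 steps, and nuclei were counted after 5 days.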
# PAC-1 + Navitoclax = compound: C=CCc1cccc(/C=N/NC(=O)CN2CCN(Cc3ccccc3)CC2)c1O [PAC-1] + CC1(C)CCC(c2ccc(Cl)cc2)=C(CN2CCN(c3ccc(C(=O)NS(=O)(=O)c4ccc(N[C@H](CCN5CCOCC5)CSc5ccccc5)c(S(=O)(=O)C(F)(F)F)c4)cc3)CC2)C1 [Navitoclax] (partner 0.5 µM)
# Outline: as §1
# BMX-IN-1 + Navitoclax = compound: C=CC(=O)Nc1cc(-n2c(=O)ccc3cnc4ccc(-c5ccc(NS(C)(=O)=O)cc5)cc4c32)ccc1C [BMX-IN-1] + CC1(C)CCC(c2ccc(Cl)cc2)=C(CN2CCN(c3ccc(C(=O)NS(=O)(=O)c4ccc(N[C@H](CCN5CCOCC5)CSc5ccccc5)c(S(=O)(=O)C(F)(F)F)c4)cc3)CC2)C1 [Navitoclax] (partner 0.5 µM)
# Outline: as §1
# Ibrutinib + Pemetrexed = compound: C=CC(=O)N1CCC[C@@H](n2nc(-c3ccc(Oc4ccccc4)cc3)c3c(N)ncnc32)C1 [Ibrutinib] + Nc1nc2[nH]cc(CCc3ccc(C(=O)N[C@@H](CCC(=O)O)C(=O)O)cc3)c2c(=O)[nH]1 [Pemetrexed] (partner 0.2 µM)
# Outline: as §1
cell line,measurement,setting,value
SK-MES-1,relative viability,PAC-1 + Dasatinib; first compound 0.02 µM,0.359
same,relative viability,PAC-1 + Dasatinib; first compound 0.06325 µM,0.516
same,relative viability,PAC-1 + Dasatinib; first compound 0.2 µM,0.371
same,relative viability,PAC-1 + Dasatinib; first compound 2 µM,0.401
same,relative viability,PAC-1 + Navitoclax; first compound 0.02 µM,1.09
same,relative viability,PAC-1 + Navitoclax; first compound 0.06325 µM,1.3
same,relative viability,PAC-1 + Navitoclax; first compound 0.2 µM,1.19
same,relative viability,PAC-1 + Navitoclax; first compound 2 µM,1.21
same,relative viability,BMX-IN-1 + Navitoclax; first compound 0.02 µM,1.45
same,relative viability,BMX-IN-1 + Navitoclax; first compound 0.2 µM,1.45
same,relative viability,BMX-IN-1 + Navitoclax; first compound 0.6325 µM,1.23
same,relative viability,BMX-IN-1 + Navitoclax; first compound 2 µM,1.1
same,relative viability,Ibrutinib + Pemetrexed; first compound 0.005 µM,1.01
same,relative viability,Ibrutinib + Pemetrexed; first compound 0.01581 µM,0.951
same,relative viability,Ibrutinib + Pemetrexed; first compound 0.05 µM,0.905
same,relative viability,Ibrutinib + Pemetrexed; first compound 0.1581 µM,1.14
same,relative viability,Ibrutinib + Pemetrexed; first compound 0.5 µM,0.752
